Experimental data from US20150218212A1, “FLUORINATED EPOXYKETONE-BASED TETRAPEPTIDE COMPOUNDS AND USES THEREOF AS PROTEASOME INHIBITORS” (FLUORINOV PHARMA INC., priority 2012, published 2015).

How the values were obtained:
Assay type in all cases: cell-based, human
NCI-H460 = assay: NCI screening panel, NCI-H460 (Non-Small Cell Lung Cancer)
Method: (§1) Representative compounds of Formula I were screened using the National Cancer Institute (NCI) screening panel, which consists of a panel of human tumor cell lines, representing leukemia, melanoma, and cancers of the lung, colon, ovary, breast, prostate and renal system.
(§2) After 24 h, two plates of each cell line are fixed in situ with TCA, to represent a measurement of the cell population for each cell line at the time of drug addition (Tz). Experimental drugs are solubilised in dimethyl sulfoxide at 400-fold the desired final maximum test concentration and stored frozen prior to use. At the time of drug addition, an aliquot of frozen concentrate is thawed and diluted to twice the desired final maximum test concentration with complete medium containing 50 μg/mL gentamicin. Additional four, 10-fold or ½ log serial dilutions are made to provide a total of five drug concentrations plus control. Aliquots of 100 μl of these different drug dilutions are added to the appropriate microtiter wells already containing 100 μl of medium, resulting in the required final drug concentrations.
(§3) Following drug addition, the plates are incubated for an additional 48 h at 37° C., 5% CO2, 95% air, and 100% relative humidity. For adherent cells, the assay is terminated by the addition of cold TCA (trichloroacetic acid). Cells are fixed in situ by the gentle addition of 50 μl of cold 50% (w/v) TCA (final concentration, 10% TCA) and incubated for 60 minutes at 4° C. The supernatant is discarded, and the plates are washed five times with tap water and air dried. Sulforhodamine B (SRB) solution (100 μl) at 0.4% (w/v) in 1% acetic acid is added to each well, and plates are incubated for 10 minutes at room temperature. After staining, unbound dye is removed by washing five times with 1% acetic acid and the plates are air dried. Bound stain is subsequently solubilised with 10 mM trizma base, and the absorbance is read on an automated plate reader at a wavelength of 515 nm. For suspension cells, the methodology is the same except that the assay is terminated by fixing settled cells at the bottom of the wells by gently adding 50 μl of 80% TCA (final concentration, 16% TCA). Using the seven absorbance measurements [time zero, (Tz), control growth, (C), and test growth in the presence of drug at the five concentration levels (Ti)], the percentage growth is calculated at each of the drug concentrations levels. Percentage growth inhibition is calculated as: [(Ti−Tz)/(C−Tz)]×100 for concentrations for which Ti>/=Tz and [(Ti−Tz)/Tz]×100 for concentrations for which Ti<Tz.
(§4) Three dose response parameters are calculated for each experimental agent. Growth inhibition of 50% (GI50) is calculated from [(Ti−Tz)/(C−Tz)]×100=50, which is the drug concentration resulting in a 50% reduction in the net protein increase (as measured by SRB staining) in control cells during the drug incubation. The drug concentration resulting in total growth inhibition (TGI) is calculated from Ti=Tz. The LC50 (concentration of drug resulting in a 50% reduction in the measured protein at the end of the drug treatment as compared to that at the beginning) indicating a net loss of cells following treatment is calculated from [(Ti−Tz)/Tz]×100=−50. Values are calculated for each of these three parameters if the level of activity is reached. However, if the effect is not reached or is exceeded, the value for that parameter is expressed as greater or less than the maximum or minimum concentration tested.

COLO 205 = assay: NCI screening panel, COLO 205 (Colon Cancer)
Method: as §1, §2, §3, §4

786-0 = assay: NCI screening panel, 786-0 (Renal Cancer)
Method: as §1, §2, §3, §4

PC-3 = assay: NCI screening panel, PC-3 (Prostate Cancer)
Method: as §1, §2, §3, §4

Row | Structure (SMILES) | Log10GI50 (NCI-H460) | Log10LC50 (NCI-H460) | Log10TGI50 (NCI-H460) | Log10GI50 (COLO 205) | Log10LC50 (COLO 205) | Log10TGI50 (COLO 205) | Log10GI50 (786-0) | Log10LC50 (786-0) | Log10TGI50 (786-0) | Log10GI50 (PC-3) | Log10LC50 (PC-3) | Log10TGI50 (PC-3)
1 | CC(C)C[C@H](NC(=O)[C@H](Cc1ccccc1)NC(=O)[C@H](COC(F)F)NC(=O)[C@H](COC(F)F)NC(=O)CN1CCOCC1)C(=O)[C@@]1(C)CO1 [Example 11, (2S)-2-[[(2S)-3-(difluoromethoxy)-2-[[(2S)-3-(difluoromethoxy)-2-[(2-morpholinoacetyl)-amino]propanoyl]amino]propanoyl]amino]-N-[(1S)-3-methyl-1-[(2R)-2-methyloxirane-2-carbonyl]butyl]-3-phenyl-propanamide] | −7.29 | −4.85 | −6.51 | −7.21 | >−4.00 | −5.31 | −6.66 | >−4.00 | −5.63 | −7.32 | >−4.00 | −6.51
2 | CC(C)C[C@H](NC(=O)[C@H](COC(F)F)NC(=O)[C@H](COC(F)F)NC(=O)[C@H](CCc1ccccc1)NC(=O)CN1CCOCC1)C(=O)[C@@]1(C)CO1 [Example 7, (2S)-N-[(1S)-1-(difluoromethoxymethyl)-2-[[(1S)-1-(difluoromethoxymethyl)-2-[[(1S)-3-methyl-1-[(2R)-2-methyloxirane-2-carbo-nyl]butyl]amino]-2-oxo-ethyl]amino]-2-oxo-ethyl]-2-[(2-morpholinoacetyl)amino]-4-phenyl-butanamide] | −7.28 | >−4.00 | −6.50 | −7.23 | >−4.00 | −5.89 | −6.45 | >−4.00 | −5.33 | −7.49 | −5.41 | −6.86
3 | CC(C)C[C@H](NC(=O)[C@H](COC(F)F)NC(=O)CN1CCOCC1)C(=O)N[C@@H](Cc1ccccc1)C(=O)N[C@@H](CC(C)C)C(=O)[C@@]1(C)CO1 [Example 2, (2S)-N-[(1S)-1-benzyl-2-[[(1S)-3-methyl-1-[(2R)-2-methyloxirane-2-carbonyl]butyl]-amino]-2-oxo-ethyl]-2-[[(2S)-3-(difluoromethoxy)-2-[(2-morpholinoacetyl)amino]propanoyl]amino]-4-methyl-pentanamide] | −7.37 | >−4.00 | −6.57 | −7.44 | −5.93 | −6.69 | −7.09 | >−4.00 | −6.01 | −7.57 | −5.62 | −6.93
4 | CC(C)C[C@H](NC(=O)[C@H](COC(F)F)NC(=O)CN1CCOCC1)C(=O)N[C@@H](Cc1ccccc1)C(=O)N[C@@H](Cc1ccccc1)C(=O)[C@@]1(C)CO1 [Example 3, (2S)-N-[(1S)-1-benzyl-2-[[(1S)-1-benzyl-2-[(2R)-2-methyloxiran-2-yl]-2-oxo-ethyl]amino]-2-oxo-ethyl]-2-[[(2S)-3-(difluoromethoxy)-2-[(2-morpholinoacetyl)-amino]propanoyl]amino]-4-methyl-pentan-amide] | −7.43 | −5.64 | −6.77 | −7.73 | −4.53 | −6.48 | −7.22 | −4.14 | −5.77 | −7.73 | −6.09 | −7.04
5 | CC(C)C[C@H](NC(=O)[C@H](COC(F)F)NC(=O)CN1CCOCC1)C(=O)N[C@@H](COC(F)F)C(=O)N[C@@H](Cc1ccccc1)C(=O)[C@@]1(C)CO1 [Example 4, (2S)-N-[(1S)-2-[[(1S)-1-benzyl-2-[(2R)-2-methyloxiran-2-yl]-2-oxo-ethyl]amino]-1-(difluoromethoxymethyl)-2-oxo-ethyl]-2-[[(2S)-3-(difluoromethoxy)-2-[(2-mor-pholinoacetyl)amino]propanoyl]amino]-4 methyl-pentanamide] | −6.84 | −4.04 | −6.19 | −7.25 | −4.46 | −6.28 | −6.44 | −4.27 | −5.58 | −7.18 | −4.68 | −6.40
6 | CC(C)C[C@H](NC(=O)[C@H](COC(F)F)NC(=O)[C@H](COC(F)F)NC(=O)[C@H](COC(F)F)NC(=O)CN1CCOCC1)C(=O)[C@@]1(C)CO1 [Example 17, (2S)-3-(difluoromethoxy)-N-[(1S)-1-(difluoromethoxymethyl)-2-[[(1S)-1-(difluoro-methoxymethyl)-2-[[(1S)-3-methyl-1-[(2R)-2-methyloxirane-2-carbonyl]butyl]amino]-2-oxo-ethyl]amino]-2-oxo-ethyl]-2-[(2-mor-pholinoacetyl)amino]-propanamide] | −6.50 | −4.60 | −5.88 | −6.62 | >−4.00 | −4.76 | −5.99 | >−4.00 | −4.92 | −6.76 | −5.02 | −6.12
7 | CC(C)C[C@H](NC(=O)[C@H](COC(F)F)NC(=O)CN1CCOCC1)C(=O)N[C@@H](COC(F)F)C(=O)N[C@@H](CC(C)C)C(=O)[C@@]1(C)CO1 [Example 1, (2S)—N-[(1S)-1-(difluoromethoxymethyl)-2-[[(1S)-3-methyl-1-[(2R)-2-methyloxirane-2-carbonyl]butyl]amino]-2-oxo-ethyl]-2-[[(2S)-3-(difluoromethoxy)-2-[(2-morpholinoacetyl)amino]propanoyl]amino]-4-methyl-pentanamide] | −7.30 | >−4.00 | −6.39 | −7.39 | −5.59 | −6.72 | −6.60 | −5.05 | −5.84 | −7.49 | – | −6.81
